The results in this text go back to US11466010B2, “Toll-like receptor 8 (TLR8) specific antagonists and methods of making and uses thereof” (The Regents of the University of Colorado, a body corporate, priority 2017, dated 2022).

The test concerns the target T1, TLR8 (Homo sapiens, UniProt Q9NR97).
T1 construct: hTLR8, residues 27-827; made in house
T1 sequence (Q9NR97 27-827): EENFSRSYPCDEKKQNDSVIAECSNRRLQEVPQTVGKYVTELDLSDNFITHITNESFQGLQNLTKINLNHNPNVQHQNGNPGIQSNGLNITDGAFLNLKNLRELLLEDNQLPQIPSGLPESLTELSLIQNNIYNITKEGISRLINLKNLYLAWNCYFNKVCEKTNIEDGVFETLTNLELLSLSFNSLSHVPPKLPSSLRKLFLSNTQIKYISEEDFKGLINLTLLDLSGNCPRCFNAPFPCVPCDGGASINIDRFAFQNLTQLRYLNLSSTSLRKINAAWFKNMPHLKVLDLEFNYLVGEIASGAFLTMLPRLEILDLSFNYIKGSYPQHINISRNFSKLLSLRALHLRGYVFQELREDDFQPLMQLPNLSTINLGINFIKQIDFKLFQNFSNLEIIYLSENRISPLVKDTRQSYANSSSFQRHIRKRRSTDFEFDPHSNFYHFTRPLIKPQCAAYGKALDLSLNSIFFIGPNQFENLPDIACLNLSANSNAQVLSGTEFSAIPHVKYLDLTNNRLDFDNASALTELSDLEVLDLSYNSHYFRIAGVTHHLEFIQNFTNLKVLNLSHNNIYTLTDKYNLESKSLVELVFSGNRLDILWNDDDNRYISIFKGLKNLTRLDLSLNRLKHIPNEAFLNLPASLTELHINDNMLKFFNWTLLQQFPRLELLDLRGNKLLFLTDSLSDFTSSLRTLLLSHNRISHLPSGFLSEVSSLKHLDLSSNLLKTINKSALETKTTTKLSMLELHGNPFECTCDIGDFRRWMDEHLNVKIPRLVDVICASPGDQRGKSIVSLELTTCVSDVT
Description: Gel filtration chromatography of TLR8 dimerization. Type of test: binding. The conditions noted are these: diluted TLR8, dose-dependent. On the procedure:
Gel filtration chromatography with diluted TLR8 proteins, in which TLR8 exists as a monomer, was conducted to determine the dimerization state of TLR8 in the absence and presence of different ligands (FIGS. 10A and 10B).
(In general: Size exclusion chromatography separates by hydrodynamic size, large species first.)

`Cc1cc(-c2ccnc3cc(O)ccc23)ccc1O` [Compound 11b, 2-Methyl-4-(7-hydroxyl-4-quinolinyl)-phenol]: the “retention volume of TLR8 (dimer stabilization in solution)” value is “smaller retention volume”.
